{
  "source": "patent US11771661B2",
  "about": "“Method of treating post-traumatic stress disorder” (ICAHN SCHOOL OF MEDICINE AT MOUNT SINAI, priority 2013, dated 2023)",
  "key": {"[1]": {"assay": "Side effects of IV administration of ketamine", "type": "in vivo, human", "description": "IV administration of ketamine can be on an as needed basis, e.g., when symptoms of PTSD appear. For IV administration, ketamine (e.g., doses of at least 0.5 mg/kg) may be administered over a period of 40 minutes. IV administration may be continued for up to 1 week, or longer. IV administration of ketamine may also be effected at least twice, at least three times, at least four times, at least five time, at least six times, at least seven times per week, and may be continued over a period of two, three, four, five, six, seven, eight, nine or 10 weeks, or more. […] Any side effects observed are typically mild, e.g., euphoria, elevated BP, increased libido, perceptual disturbances, and furthermore these effects typically abate within 80 minutes post-infusion."}, "[2]": {"test_system": "patients with treatment resistant depression (TRD), co-morbid current PTSD", "assay": "Example 1: open-label ketamine infusion in treatment resistant depression patients, case studies with co-morbid PTSD", "type": "in vivo, human", "settings": "for IES score: baseline 48", "description": "In a ketamine infusion study in patients with treatment resistant depression (TRD), ketamine (0.5 mg/kg IV) was administered open-label and combined with pre-infusion treatment with a single oral dose of lamotrigine (300 mg) or placebo administered under double-blind conditions. Preliminary analyses were recently performed on a sample of 16 patients. […] A strong positive correlation between individual childhood trauma (abuse and/or neglect) and the antidepressant response (MADRS: r=0.55, p=0.03; QIDS-SR: r=0.59, p=0.02).\nThe effect of ketamine on Hamilton Anxiety Rating Scale (HAM-A) scores was also measured. A strong positive correlation between the magnitude of the ketamine-induced reduction in HAM-A scores and personal history of childhood trauma measured using the Childhood Trauma Questionnaire (CTQ; n=15, r=0.59, p=0.02) was observed. […] Patient A, suffered from distressing intrusive memories, nightmares, flashbacks, hypervigilance, poor concentration, and depressed mood. Patient A described their PTSD and MDD symptoms as chronic, but having intensified over time, due to ongoing events in their life.\nAfter observing the magnitude of the therapeutic effect of ketamine in Patient A, TRD patients with a co-morbid current PTSD diagnosis were administered the Clinician-Administered PTSD Scale (CAPS) and the Impact of Events Scale (IES) before and after ketamine infusion. […] The day after ketamine infusion, Patient M reported that they felt an “intellectual distance” from the emotional content of prior traumatic events that allowed them to feel more in control. Patient M further described feeling relieved of a compulsion to continuously analyze their past, identify ways in which they might have circumvented trauma, and subsequently punish themself for their failure to avoid trauma. One week post-infusion, Patient M's CAPS score had dropped by 90% and could be considered a remission (defined as CAPS<20). Two weeks post-infusion, Patient M maintained their “intellectual distance” from the emotional content associated with their trauma."}, "[3]": {"test_system": "patients with chronic PTSD", "assay": "Example 2: side effects (PRISE, CADSS, BPRS, YMRS item 1) after IV infusion", "type": "in vivo, human", "description": "General side effects and possible dissociative, psychotomimetic, and manic symptoms were measured with the Patient-Rated Inventory of Side Effects (PRISE), Clinician-Administered Dissociative States Scale (CADSS), Brief Psychiatric Rating Scale (BPRS) and Young Mania Rating Scale (YMRS) item 1 (elevated mood), respectively.\nSecondary analyses also examined the effect of depression on PTSD symptoms and the interaction between treatment and depression. A mixed model approach was used to examine the effects of treatment, baseline MADRS score, and 24-hour MADRS score using only first-period data. Safety and tolerability were analyzed using descriptive statistics."}, "[4]": {"test_system": "treatment-resistant major depression", "settings": "0.5 mg/kg intravenous infusion over 40 minutes; cited from earlier work"}, "[5]": {"settings": "IN vs IV; cited from earlier work"}, "breakthrough pain (BTP)": {"test_system": "breakthrough pain (BTP)", "settings": "cited from earlier work"}, "[6]": {"settings": "cited from earlier work"}, "[7]": {"settings": "0.5 mg/kg IV open-label, 16 TRD patients"}},
  "data": [
    {"smiles": "CNC1(c2ccccc2Cl)CCCCC1=O", "note": "(centres unmarked) [ketamine, 2-(2-chlorophenyl)-2-(methylamino)-cyclohexanone]", "values": [
      {"measurement": "serious adverse events caused by IV administration", "setting": "[1]", "value": "No serious adverse events"},
      {"measurement": "time by which mild side effects typically abate post-infusion", "setting": "[1]", "value": "≤ 80", "unit": "min"},
      {"measurement": "MADRS clinical depression scores, baseline to 24 hours post-infusion", "setting": "[2]; [7]", "value": "reduced clinical depression scores"},
      {"measurement": "self-reported mood, QIDS-SR", "setting": "[2]; [7]", "value": "improved"},
      {"measurement": "IES score", "setting": "[2]; Patient M, +1 week", "value": 5},
      {"measurement": "CAPS score", "setting": "[2]; Patient M, +1 week, baseline 81", "value": 8},
      {"measurement": "IES score", "setting": "[2]; Patient M, +2 weeks", "value": 15},
      {"measurement": "CAPS score", "setting": "[2]; Patient M, +2 weeks, baseline 81", "value": 27},
      {"measurement": "IES score", "setting": "[2]; Patient M, +40 min post-ketamine", "value": 33},
      {"measurement": "IES score", "setting": "[2]; Patient M, +240 min", "value": 3},
      {"measurement": "IES score", "setting": "[2]; Patient M, +24 hours", "value": 16},
      {"measurement": "IES score", "setting": "[2]; Patient M, +72 hours", "value": 5},
      {"measurement": "drop in CAPS score", "setting": "[2]; Patient M, one week post-infusion, baseline 81", "value": 90, "unit": "%"},
      {"measurement": "psychotic or manic symptoms", "setting": "[3]; BPRS, YMRS item 1", "value": "No emergence of significant psychotic or manic symptoms"},
      {"measurement": "patients requiring acute beta-blocker treatment for blood pressure elevation", "setting": "[3]; during infusion, systolic >180 and/or diastolic >100", "value": "Three"},
      {"measurement": "time by which dissociative symptoms had resolved", "setting": "[3]; from start of infusion", "value": "≤ 120", "unit": "min"},
      {"measurement": "time of peak of dissociative symptoms", "setting": "[3]; from start of infusion", "value": 40, "unit": "min"},
      {"measurement": "safety and tolerability", "setting": "[3]; single dose IV", "value": "safe and well-tolerated"},
      {"measurement": "duration of improvements in depression", "setting": "[4]", "value": "up to 1 week"},
      {"measurement": "serious adverse events", "setting": "[4]", "value": "no serious adverse events"},
      {"measurement": "time to improvements in depression post-injection", "setting": "[4]", "value": "≤ 2", "unit": "h"},
      {"measurement": "intranasal plasma levels (pain treatment) lower than intravenous ketamine studies in depression", "setting": "[5]", "value": "3-4 fold"},
      {"measurement": "breakthrough pain vs placebo", "setting": "breakthrough pain (BTP); 10-50 mg intranasal in incremental 10 mg doses every 90 seconds", "value": "lower BTP"},
      {"measurement": "side effects", "setting": "breakthrough pain (BTP); 10-50 mg intranasal", "value": "very few side effects"},
      {"measurement": "dose at which mild adverse effects (dysphoria, hallucinations) can occur", "setting": "[6]; in vivo", "value": "greater than 50 mg"},
      {"measurement": "total intranasal dose usually required for mild adverse effects", "setting": "[6]; intranasal", "value": "greater than 100 mg"}
    ]}
  ]
}
